Measurements as given in patent US9700637B2, “Reaction-based fluorescent probes for detecting zinc” (Massachusetts Institute of Technology, priority 2013, dated 2017).

Columns and labels:
[1] = tested on: HeLa cells; assay: Live cell fluorescence imaging: localization, co-localization and uptake; assay type: cell-based; details: fluorescence microscopy, live HeLa cells (Table 1)
Experimental: FIG. 6 depicts live cell imaging of HeLa cells. 500 nM mitotracker Red was bath-applied along with 1 μM DA-ZP1-TPP for 30 min at 37° C. and 5% CO2. After exposure to 25 μM 1:2 zinc:pyrithione, fluorescent images were acquired and the co-localization of the two sensors was assessed. The calculated Pearson's correlation coefficient (r) was r=0.581±0.097 (n=9), which represents the average of 9 ROIs over three independent plates.
FIG. 14 depicts live cell imaging of HeLa cells. 1 μM Lysotracker Red was bath-applied along with 2 μM ZP1-TPP. The calculated Pearson's correlation coefficient (r) was r=0.45±0.15, which represents the average of 9 ROIs over three independent plates.
FIG. 24 depicts fluorescence images of live HeLa cells. HeLa cells were pretreated with a 1 μM solution of DA-ZP1-TPP in dye- and serum-free medium for 30 min (37° C., 5% CO2). […] The signal from MitoTracker Red (c) correlates well with the signal from the zinc-bound sensor (d). Pearson's r=0.64±0.1 (n=18).
FIG. 27 depicts deconvoluted fluorescence microscopy images of live HeLa cells pretreated with ZP1-R9 (5 μM) or DA-ZP1-R9 (2.5 μM) and the indicated organelle stain. Top, ZP1-R9: (a) Differential interference contrast (DIC) image, (b) signal from ZP1-R9, (c) signal from LysoTracker Red, (d) overlay of (b) and (c). Pearson's r=0.42±0.16 (n=8). Bottom, DA-ZP1-R9: (e) DIC, (f) signal from DA-ZP1-R9 after treatment with 25 μM ZnPT, (g) signal from Hoechst 33258, (h) overlay of (f) and (g). Scale bar=25 μm.
FIG. 29 depicts deconvoluted fluorescence microscopy images of live HeLa cells pretreated with 1 μM DA-ZP1-R9 and 100 nM Dextran Red. (a) Differential interference contrast (DIC), (b) signal from DA-ZP1-R9 after addition of 25 μM ZnPT (c) signal from Dextran Red, (d) overlay of (b) and (c). Pearson's r=0.55±0.12 (n=11). Scale bar=25 μm.
FIG. 31 depicts deconvoluted fluorescence microscopy images of ZP1-(Fxr)3 and DA-ZP1-r(Fxr)3 in live HeLa cells. Top, cells pretreated with medium containing 2.5 μM of ZP1-(Fxr)3: (a) Differential interference contrast (DIC) image, (b) signal from ZP1-(Fxr)3, (c) signal from Dextran Red, (d) overlay of (b) and (c). Pearson's r=0.71±0.07. Bottom, cells pretreated with 1 μM DA-ZP1-r(Fxr)3: (e) DIC, (f) signal from DA-ZP1-r(Fx)3 after treatment with 25 μM ZnPT, (g) signal from MitoTracker Red, (h) overlay of (f) and (g). Pearson's r=0.41±0.09. Scale bar=25 μm.
FIG. 33 depicts deconvoluted fluorescence microscopy images of DCF-r(Fxr)3 and DA-DCF-r(Fxr)3 in live HeLa cells. Top, cells pretreated with 5 μM DCF-r(Fxr)3 and 500 nM MitoTracker Red for 30 min. (a) differential contrast image (DIC), (b) signal from DCF-r(Fxr)3, (c) signal from MitoTracker Red. Bottom, cells pretreated with 5 μM DA-DCF-r(Fxr)3 and 500 nM MitoTracker Red for 30 min. (d) DIC, (e) signal from DCF-r(Fxr)3, (f) signal from MitoTracker Red. The global Pearson's r=0.57±0.16 (n=37). Cells with high levels of DA-DCF-r(Fxr)3 (e, red outline) have a higher Pearson's r=0.83±0.08 (n=10). Scale bar=25 μm.
We used HeLa cells as a model system to evaluate the ability of DA-ZP1-TPP to target mitochondria and respond to changes in intracellular zinc levels. […] Over a two-hour period, the fluorescence intensity from the sensor remained constant, implying that the acetylated form is stable against intracellular esterases (FIG. 24e). […] Addition of 100 μM TPEN attenuated the fluorescence signal by ˜2.4-fold (FIG. 24f). […]

[2] = cited from earlier work

Structure (SMILES)	Localization [1]	pKa of tertiary nitrogen atoms on the DPA units [2]
CC(=O)Oc1c(Cl)cc2c(c1CN(Cc1ccccn1)Cc1ccccn1)Oc1c(cc(Cl)c(OC(C)=O)c1CN(Cc1ccccn1)Cc1ccccn1)C21OC(=O)c2ccc(C(=O)NCC[P+](c3ccccc3)(c3ccccc3)c3ccccc3)cc21 [DA-ZP1-TPP]	Mitochondria	
O=C(NCC[P+](c1ccccc1)(c1ccccc1)c1ccccc1)c1ccc2c(c1)C1(OC2=O)c2cc(Cl)c(O)c(CN(Cc3ccccn3)Cc3ccccn3)c2Oc2c1cc(Cl)c(O)c2CN(Cc1ccccn1)Cc1ccccn1 [ZP1-TPP]	Endo/lysosome	6.96
